Our source for the EPSA values is patent US20260022143A1, “Cyclic Peptide Inhibitors of IL-23” (JANSSEN PHARMACEUTICA NV, priority 2022, published 2026).

Molecules are shown by their SMILES. Starred links: 1 amine or outer side, 2 acyl side, 3 side chain; linkers in the order of their positions; H or OH if unused. Positions of bridges follow the written chain, without caps; N, C: chain ends. Non-standard residues stand in square brackets, D forms with d. Residues, ends and D or L forms follow the SMILES beside them. Groups on a side chain read outwards from the residue. *: point of attachment. Trp(7-(3-AcNH-Ph)) = CC(=O)Nc1cccc(-c2cccc3c(C[C@H](N)C(=O)O)c[nH]c23)c1; Me3N+(CH2)2O(CH2)2O(CH2)2CO = C[N+](C)(C)CCOCCOCCC(=O)*; CH2CH2OCH2CH2OCH2CH2NMe3+ = C[N+](C)(C)CCOCCOCC*; NH(CH2CH2O)2CH2CH2NMe3+ = C[N+](C)(C)CCOCCOCCN*; Trp(7-Me) = Cc1cccc2c(C[C@H](N)C(=O)O)c[nH]c12; X28 = CCCCCCCCCCCCCCCC[N+](C)(C)CCc1cn(CC*)nn1; Hexanoyl(6-NMe3+) = C[N+](C)(C)CCCCCC(=O)*; Lys(Me3) = C[N+](C)(C)CCCC[C@H](N)C(=O)O; γGlu = O=C(O)[C@H](CCC(=O)[*:2])N[*:1]; 2Nal = N[C@@H](Cc1ccc2ccccc2c1)C(=O)O; AEF = NCCOc1ccc(C[C@H](N)C(=O)O)cc1; 3Pal = N[C@@H](Cc1cccnc1)C(=O)O; Myristoyl = CCCCCCCCCCCCCC(=O)*; Lys(Me) = CNCCCC[C@H](N)C(=O)O; X7 = COCCOCCOCCOCCOCCOCCC(=O)*; Agb = N=C(N)NCC[C@H](N)C(=O)O; Pen = CC(C)(S)[C@H](N)C(=O)O; αMeK = C[C@](N)(CCCCN)C(=O)O; Thp = NC1(C(=O)O)CCOCC1; Dap = NC[C@H](N)C(=O)O; X3 = C[N+](C)(C)CCCCC*; AEEA = NCCOCCOCC(=O)O; Me2NCH2CH2 = CN(C)CC*; Sar = CNCC(=O)O

This series can be described thus: Exposed Polar Surface Area (EPSA). The series is classed as physicochemical. The settings on record: SFC on Chirex 3014 column; sample 1 mM DMSO stock; read-out: EPSA. The gist of the method:
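Chirex 3014 column, 35 °C, 4 mL/min; CO2/MeOH + 20 mM NH4 formate, 5→60% modifier at 20%/min. UV/MS detection. EPSA (Å^2) from retention time vs 8-standard calibration line; duplicates; 1 mM DMSO stock injected undiluted.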
Regarding `CC(=O)N(C)CCCC[C@H](NC(=O)C1(NC(=O)[C@H](Cc2ccc3ccccc3c2)NC(=O)[C@H](Cc2ccc(OCCCCC[N+](C)(C)C)cc2)NC(=O)[C@H]2NC(=O)[C@H](CCCC[N+](C)(C)C)NC(=O)[C@H](Cc3c[nH]c4c(C)cccc34)NC(=O)[C@H]([C@@H](C)O)NC(=O)[C@H](CC(=O)N(C)C)NC(=O)[C@@H](NC(=O)CCOCCOCC[N+](C)(C)C)C(C)(C)SSC2(C)C)CCOCC1)C(=O)N[C@@H](CC(N)=O)C(=O)N[C@@H](Cc1cccnc1)C(=O)N(C)CC(=O)N(C)C` [compound 329, cPEG3aCO-Pen(3)-N(N(Me)2)-T-7MeW-K(Me)3-Pen(3)-TMAPF-2Nal-THP-K(NMeAc)-N-3Pya-Sar-CON(Me)2] ({Me3N+(CH2)2O(CH2)2O(CH2)2CO}-[Pen]D(NMe2)T[Trp(7-Me)][Lys(Me3)][Pen]Y(X3)[2Nal][Thp][Lys(Me)](Ac)N[3Pal][Sar]-NMe2; disulfide 1-6), the EPSA came to 155 A^2.
As for `CC(=O)N(C)CCCC[C@H](NC(=O)C1(NC(=O)[C@H](Cc2ccc3ccccc3c2)NC(=O)[C@H](Cc2ccc(OCCCCC[N+](C)(C)C)cc2)NC(=O)[C@H]2NC(=O)[C@H](CCC(=O)N(C)C)NC(=O)[C@H](Cc3c[nH]c4c(C)cccc34)NC(=O)[C@H]([C@@H](C)O)NC(=O)[C@H](CC(=O)N(C)C)NC(=O)[C@@H](NC(=O)CCOCCOCC[N+](C)(C)C)C(C)(C)SSC2(C)C)CCOCC1)C(=O)N[C@@H](CC(N)=O)C(=O)N[C@@H](Cc1cccnc1)C(=O)N(C)CC(=O)N(C)C` [compound 312, cPEG3aCO-Pen(3)-N(N(Me)2)-T-7MeW-Q(N(Me)2)-Pen(3)-TMAPF-2Nal-THP-K(NMeAC)-N-3Pya-Sar-CON(Me)2] ({Me3N+(CH2)2O(CH2)2O(CH2)2CO}-[Pen]D(NMe2)T[Trp(7-Me)]E(NMe2)[Pen]Y(X3)[2Nal][Thp][Lys(Me)](Ac)N[3Pal][Sar]-NMe2; disulfide 1-6), the EPSA was 151 A^2.
In the case of `CC(=O)N[C@@H]1C(=O)N[C@@H](CCNC(=N)N)C(=O)N[C@@H]([C@@H](C)O)C(=O)N[C@@H](Cc2c[nH]c3c(C)cccc23)C(=O)N[C@@H](CCCCN(C)C(C)=O)C(=O)N[C@H](C(=O)N[C@@H](Cc2ccc(OCCOCCOCC[N+](C)(C)C)cc2)C(=O)N[C@@H](Cc2ccc3ccccc3c2)C(=O)NC2(C(=O)N[C@@H](CCCCN(C)C(C)=O)C(=O)N[C@@H](CC(N)=O)C(=O)N[C@@H](Cc3cccnc3)C(=O)N(C)CC(=O)N(C)C)CCOCC2)C(C)(C)SSC1(C)C` [compound 412] (Ac-[Pen][Agb]T[Trp(7-Me)][Lys(Me)](Ac)[Pen]Y(CH2CH2OCH2CH2OCH2CH2NMe3+)[2Nal][Thp][Lys(Me)](Ac)N[3Pal][Sar]-NMe2; disulfide 1-6), the EPSA is 157 A^2.
The same measure for `CC(=O)N[C@@H]1C(=O)N[C@@H](CC(=O)N(C)C)C(=O)N[C@@H]([C@@H](C)O)C(=O)N[C@@H](Cc2c[nH]c3c(C)cccc23)C(=O)N[C@@H](CCCCN(C)C(C)=O)C(=O)N[C@H](C(=O)N[C@@H](Cc2ccc(OCCCCC[N+](C)(C)C)cc2)C(=O)N[C@@H](Cc2ccc3ccccc3c2)C(=O)NC2(C(=O)N[C@@H](CCCCN(C)C(C)=O)C(=O)N[C@@H](CC(N)=O)C(=O)N[C@@H](Cc3cccnc3)C(=O)N(C)CC(=O)NCCOCCOCC[N+](C)(C)C)CCOCC2)C(C)(C)SSC1(C)C` [compound 219, MeCO-Pen(3)-N(N(Me)2)-T-7MeW-K(NMeAc)-Pen(3)-TMAPF-2Nal-THP-K(NMeAc)-N-3Pya-Sar-CO(NHPEG3a)] (Ac-[Pen]D(NMe2)T[Trp(7-Me)][Lys(Me)](Ac)[Pen]Y(X3)[2Nal][Thp][Lys(Me)](Ac)N[3Pal][Sar]-{NH(CH2CH2O)2CH2CH2NMe3+}; disulfide 1-6 (inferred)): 139 A^2.
`CC(=O)NCCCC[C@@H]1NC(=O)[C@H](Cc2c[nH]c3c(-c4cccc(NC(C)=O)c4)cccc23)NC(=O)[C@H]([C@@H](C)O)NC(=O)[C@H](CC(N)=O)NC(=O)[C@@H](NC(=O)CCOCCOCC[N+](C)(C)C)C(C)(C)SSC(C)(C)[C@@H](C(=O)N[C@@H](Cc2ccc(OCCN)cc2)C(=O)N[C@@H](Cc2ccc3ccccc3c2)C(=O)NC2(C(=O)N[C@@H](CCCCNC(C)=O)C(=O)N[C@@H](CC(N)=O)C(=O)N[C@@H](Cc3cccnc3)C(=O)N(C)CC(N)=O)CCOCC2)NC1=O` [compound 445, cPEG3aCO-Pen(3)-N-T-7(3NAcPh)W-K(Ac)-Pen(3)-AEF-2Nal-THP-K(Ac)-N-3Pya-Sar-CONH2] ({Me3N+(CH2)2O(CH2)2O(CH2)2CO}-[Pen]NT[Trp(7-(3-AcNH-Ph))]K(Ac)[Pen][AEF][2Nal][Thp]K(Ac)N[3Pal][Sar]-NH2; disulfide 1-6): the EPSA is 176 A^2.
`CCCCCCCCCCCCCCCC[N+](C)(C)CCc1cn(CCOc2ccc(C[C@H](NC(=O)[C@H]3NC(=O)[C@H](CCCCNC(C)=O)NC(=O)[C@H](Cc4c[nH]c5c(C)cccc45)NC(=O)[C@H]([C@@H](C)O)NC(=O)[C@H](CC(N)=O)NC(=O)[C@@H](NC(C)=O)C(C)(C)SSC3(C)C)C(=O)N[C@@H](Cc3ccc4ccccc4c3)C(=O)NC3(C(=O)N[C@@H](CCCCNC(C)=O)C(=O)N[C@@H](CC(N)=O)C(=O)N[C@@H](Cc4cccnc4)C(=O)N(C)CC(N)=O)CCOCC3)cc2)nn1` [compound 259] (Ac-[Pen]NT[Trp(7-Me)]K(Ac)[Pen]Y(X28)[2Nal][Thp]K(Ac)N[3Pal][Sar]-NH2; disulfide 1-6): the EPSA is 149 A^2.
Consider `CC(=O)NCCCC[C@@H]1NC(=O)[C@H](Cc2c[nH]c3c(C)cccc23)NC(=O)[C@H]([C@@H](C)O)NC(=O)[C@H](CC(N)=O)NC(=O)[C@@H](NC(=O)CCCCC[N+](C)(C)C)C(C)(C)SSC(C)(C)[C@@H](C(=O)N[C@@H](Cc2ccc(OCCN)cc2)C(=O)N[C@@H](Cc2ccc3ccccc3c2)C(=O)NC2(C(=O)N[C@@H](CCC(=O)O)C(=O)N[C@@H](CC(N)=O)C(=O)N[C@@H](Cc3cccnc3)C(=O)N(C)CC(N)=O)CCOCC2)NC1=O` [compound 81] ({Hexanoyl(6-NMe3+)}-[Pen]NT[Trp(7-Me)]K(Ac)[Pen][AEF][2Nal][Thp]EN[3Pal][Sar]-NH2; disulfide 1-6 (inferred)), for which the EPSA turned out to be 173 A^2.
`CC(=O)NCCCC[C@@H]1NC(=O)[C@H](Cc2c[nH]c3c(C)cccc23)NC(=O)[C@H]([C@@H](C)O)NC(=O)[C@H](CC(N)=O)NC(=O)[C@@H](NC(C)=O)C(C)(C)SSC(C)(C)[C@@H](C(=O)N[C@@H](Cc2ccc(OCCN(C)C)cc2)C(=O)N[C@@H](Cc2ccc3ccccc3c2)C(=O)NC2(C(=O)N[C@@H](CNC(C)=O)C(=O)N[C@@H](CC(N)=O)C(=O)N[C@@H](Cc3cccnc3)C(=O)N(C)CC(N)=O)CCOCC2)NC1=O` [compound 102] (Ac-[Pen]NT[Trp(7-Me)]K(Ac)[Pen]Y(Me2NCH2CH2)[2Nal][Thp][Dap](Ac)N[3Pal][Sar]-NH2; disulfide 1-6): the EPSA was 156 A^2.
Consider `CCCCCCCCCCCCCC(=O)N[C@@H](CCC(=O)NCCOCCOCC(=O)NCCOCCOCC(=O)NCCCC[C@@H]1NC(=O)[C@@H](NC(=O)CCOCCOCC[N+](C)(C)C)C(C)(C)SSC(C)(C)[C@@H](C(=O)N[C@@H](Cc2ccc(OCCCCC[N+](C)(C)C)cc2)C(=O)N[C@@H](Cc2ccc3ccccc3c2)C(=O)NC2(C(=O)N[C@@H](CCCCNC(=O)COCCOCCNC(=O)COCCOCCNC(=O)CC[C@H](NC(=O)CCCCCCCCCCCCC)C(=O)O)C(=O)N[C@@H](CC(N)=O)C(=O)N[C@@H](Cc3cccnc3)C(=O)N(C)CC(=O)N(C)C)CCOCC2)NC(=O)[C@H](CCCCN(C)C(C)=O)NC(=O)[C@H](Cc2c[nH]c3c(C)cccc23)NC(=O)[C@H]([C@@H](C)O)NC1=O)C(=O)O` [compound 398, cPEG3aCO-Pen(3)-K(PEG2PEG2gEC14)-T-7MeW-K(NMeAc)-Pen(3)-TMAPF-2Nal-THP-K(PEG2PEG2gEC14)-N-3Pya-Sar-CON(Me)2] ({Me3N+(CH2)2O(CH2)2O(CH2)2CO}-[Pen]K([AEEA-AEEA-γGlu-Myristoyl])T[Trp(7-Me)][Lys(Me)](Ac)[Pen]Y(X3)[2Nal][Thp]K([AEEA-AEEA-γGlu-Myristoyl])N[3Pal][Sar]-NMe2; disulfide 1-6), for which the EPSA amounted to 168 A^2.
With `CC(=O)NCCCC[C@@H]1NC(=O)[C@H](Cc2c[nH]c3c(C)cccc23)NC(=O)[C@H]([C@@H](C)O)NC(=O)[C@H](CC(N)=O)NC(=O)[C@@H](NC(C)=O)C(C)(C)SSC(C)(C)[C@@H](C(=O)N[C@@H](Cc2ccc(OCCN(C)C)cc2)C(=O)N[C@@H](Cc2ccc3ccccc3c2)C(=O)N[C@@](C)(CCCCN)C(=O)N[C@@H](CCCCNC(C)=O)C(=O)N[C@@H](CC(N)=O)C(=O)NC2(C(N)=O)CCOCC2)NC1=O` [compound 31] (Ac-[Pen]NT[Trp(7-Me)]K(Ac)[Pen]Y(Me2NCH2CH2)[2Nal][αMeK]K(Ac)N[Thp]-NH2; disulfide 1-6), the EPSA came to 158 A^2.
The same measure for `COCCOCCOCCOCCOCCOCCC(=O)N(C)CCCC[C@H](NC(=O)C1(NC(=O)[C@H](Cc2ccc3ccccc3c2)NC(=O)[C@H](Cc2ccc(OCCN)cc2)NC(=O)[C@H]2NC(=O)[C@H](CCCCNC(C)=O)NC(=O)[C@H](Cc3c[nH]c4c(C)cccc34)NC(=O)[C@H]([C@@H](C)O)NC(=O)[C@H](CC(N)=O)NC(=O)[C@@H](NC(C)=O)C(C)(C)SSC2(C)C)CCOCC1)C(=O)N[C@@H](CC(N)=O)C(=O)N[C@@H](Cc1cccnc1)C(=O)N(C)CC(N)=O` [compound 92] (Ac-[Pen]NT[Trp(7-Me)]K(Ac)[Pen][AEF][2Nal][Thp][Lys(Me)](X7)N[3Pal][Sar]-NH2; disulfide 1-6): 151 A^2.
